According to US12252524B2, “GIP/GLP1 co-agonist compounds” (Eli Lilly and Company, priority 2018, dated 2025):
Numbered stars: 1 amine (or outer) side, 2 acyl side, 3 side chain; on linkers, the order of the positions; unused ones are H or OH. Square brackets hold non-standard residues; d marks the D form. Side chains are listed from the residue outwards. Peptide text beside a SMILES is read from it. * marks the point of attachment. C20 diacid = O=C(O)CCCCCCCCCCCCCCCCCCC(=O)*; C18 diacid = O=C(O)CCCCCCCCCCCCCCCCC(=O)*; αMePhe(2-F) = C[C@](N)(Cc1ccccc1F)C(=O)O; γGlu = O=C(O)[C@H](CCC(=O)[*:2])N[*:1]; αMeY = C[C@](N)(Cc1ccc(O)cc1)C(=O)O; αMeL = CC(C)C[C@](C)(N)C(=O)O; AEEA = NCCOCCOCC(=O)O; Aib = CC(C)(N)C(=O)O

Legend:
[1] = biological target: T1, human Gcg receptor (Homo sapiens, UniProt P47871); assay: [125I]-Glucagon binding (SPA), human Gcg receptor; conditions: read-out: hGLcgR Ki, nM (SEM, n)
T1 construct: expressed in transfected cells; crude membranes
T1 sequence (P47871 26-477): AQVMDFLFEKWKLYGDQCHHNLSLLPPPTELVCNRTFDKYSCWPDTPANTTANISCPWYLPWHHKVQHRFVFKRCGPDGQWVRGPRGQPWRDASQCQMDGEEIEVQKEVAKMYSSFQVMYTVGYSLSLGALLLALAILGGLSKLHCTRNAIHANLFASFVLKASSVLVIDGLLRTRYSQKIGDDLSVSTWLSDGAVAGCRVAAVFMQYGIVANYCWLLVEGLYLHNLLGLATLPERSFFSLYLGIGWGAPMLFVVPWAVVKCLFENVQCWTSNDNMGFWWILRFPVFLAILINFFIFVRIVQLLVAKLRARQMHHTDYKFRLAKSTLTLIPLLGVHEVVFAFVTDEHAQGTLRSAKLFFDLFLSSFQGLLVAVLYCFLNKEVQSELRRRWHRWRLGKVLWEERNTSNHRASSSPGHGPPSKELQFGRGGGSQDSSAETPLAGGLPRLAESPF
Method in brief: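 Crude membranes from cells expressing the receptor, prepared by hypotonic lysis in 50 mM Tris HCl pH 7.5 with protease inhibitors, homogenization and differential centrifugation, were used in a WGA-bead SPA. Binding buffer: 25 mM HEPES pH 7.4, 2.5 mM CaCl2, 1 mM MgCl2, bacitracin, Tween-20.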

[2] = biological target: T2, human GIP receptor (Homo sapiens, UniProt P48546); assay: [125I]-GIP binding (SPA), human GIP receptor; conditions: read-out: hGIPR Ki, nM (SEM, n)
T2 construct: expressed in transfected cells; crude membranes
T2 sequence (P48546 22-466): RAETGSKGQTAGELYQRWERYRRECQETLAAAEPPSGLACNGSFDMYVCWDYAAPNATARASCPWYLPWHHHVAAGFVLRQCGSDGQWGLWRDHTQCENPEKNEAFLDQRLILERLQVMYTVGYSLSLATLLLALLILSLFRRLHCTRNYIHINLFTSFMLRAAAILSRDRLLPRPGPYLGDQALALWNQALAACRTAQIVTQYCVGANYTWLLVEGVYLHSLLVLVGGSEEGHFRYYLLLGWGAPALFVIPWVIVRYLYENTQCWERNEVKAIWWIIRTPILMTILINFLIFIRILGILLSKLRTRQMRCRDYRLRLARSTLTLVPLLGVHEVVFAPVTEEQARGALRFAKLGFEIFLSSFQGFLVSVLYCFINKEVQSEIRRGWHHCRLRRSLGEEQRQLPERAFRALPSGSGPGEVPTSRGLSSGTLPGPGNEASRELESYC

[3] = biological target: human GLP-1 receptor (GLP-1R) (Homo sapiens, UniProt P43220); assay: cAMP pharmacological functional assay in presence of casein, hGLP-1R; assay type: cell-based; conditions: HEK293 cells expressing hGLP-1R, 0.1% Casein, geometric mean; read-out: hGLP1R cAMP Rel EC50 nM (SEM, n)
human GLP-1 receptor (GLP-1R), sequence (P43220 24-463): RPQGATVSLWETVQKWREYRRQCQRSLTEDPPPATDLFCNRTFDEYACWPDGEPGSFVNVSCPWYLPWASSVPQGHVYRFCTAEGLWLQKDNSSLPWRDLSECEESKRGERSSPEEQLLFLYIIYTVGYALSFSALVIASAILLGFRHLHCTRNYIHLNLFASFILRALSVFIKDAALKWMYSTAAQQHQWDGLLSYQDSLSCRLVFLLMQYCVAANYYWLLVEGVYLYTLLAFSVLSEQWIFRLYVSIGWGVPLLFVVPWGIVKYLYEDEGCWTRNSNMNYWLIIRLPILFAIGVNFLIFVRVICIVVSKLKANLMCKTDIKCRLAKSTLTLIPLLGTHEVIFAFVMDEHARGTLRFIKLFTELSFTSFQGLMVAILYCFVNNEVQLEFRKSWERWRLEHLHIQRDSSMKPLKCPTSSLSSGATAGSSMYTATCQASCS

[4] = biological target: T3, gastric inhibitory peptide receptor (GIPR) (Homo sapiens, UniProt P48546); assay: cAMP pharmacological functional assay in presence of casein, hGIPR; assay type: cell-based; conditions: HEK293 cells expressing hGIPR, 0.1% Casein, geometric mean; read-out: hGIPR cAMP Rel EC50 nM (SEM, n)
T3 sequence (P48546 22-466): T2 sequence (P48546 22-466)

[5] = biological target: human GLP-1R (Homo sapiens, UniProt P43220); assay: [125I]-GLP-1 binding (SPA), human GLP-1 receptor; set-up: expressed in transfected cells; crude membranes; conditions: read-out: hGLP1R Ki, (nM) (SEM, n)
human GLP-1R, sequence (P43220 24-463): as above
Method in brief: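 Membranes: hypotonic lysis (50 mM Tris HCl, pH 7.5, protease inhibitors), Potter-Elvehjem homogenization, high-speed pellet (35000×g 1 h or 25000×g 30 min, 4° C.). Buffer: 25 mM HEPES pH 7.4, 2.5 mM CaCl2, 1 mM MgCl2. Four-parameter IC50 fit; Ki as geometric mean ± SEM.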

SMILES | Ki [1] | Ki [2] | EC50 [3] | EC50 [4] | Ki [5]
CC[C@H](C)[C@H](NC(=O)[C@H](CC(C)C)NC(=O)[C@H](Cc1ccc(O)cc1)NC(=O)[C@@H](CCC(=O)O)NC(=O)[C@@H](NC(=O)[C@H](Cc1ccccc1)NC(=O)[C@H](CCC(=O)O)NC(=O)C(C)(C)NC(=O)[C@H](CCC(N)=O)NC(=O)[C@H](C)NC(=O)[C@H](CCCCNC(=O)COCCOCCNC(=O)COCCOCCNC(=O)CC[C@H](NC(=O)CCCCCCCCCCCCCCCCC(=O)O)C(=O)O)NC(=O)[C@H](CCC(=O)O)NC(=O)[C@H](CC(=O)O)NC(=O)[C@H](CC(C)C)NC(=O)[C@](C)(CC(C)C)NC(=O)[C@@H](NC(=O)[C@H](CO)NC(=O)[C@H](Cc1ccc(O)cc1)NC(=O)[C@H](CC(=O)O)NC(=O)[C@H](CO)NC(=O)[C@@H](NC(=O)[C@](C)(Cc1ccccc1F)NC(=O)[C@@H](NC(=O)CNC(=O)[C@H](CCC(=O)O)NC(=O)C(C)(C)NC(=O)[C@@H](N)Cc1ccc(O)cc1)[C@@H](C)O)[C@@H](C)O)[C@@H](C)CC)[C@@H](C)CC)C(=O)N[C@@H](CCC(=O)O)C(=O)NCC(=O)NCC(N)=O [Example 220] (H-Y[Aib]EGT[αMePhe(2-F)]TSDYSI[αMeL]LDEK([AEEA-AEEA-γGlu-C18 diacid])AQ[Aib]EFI[dE]YLIEGG-NH2; N-terminus assumed) | 377 nM | 0.0919 nM | 0.0312 nM | 0.0315 nM | 2.71 nM
CC[C@H](C)[C@H](NC(=O)[C@H](CC(C)C)NC(=O)[C@H](Cc1ccc(O)cc1)NC(=O)[C@@H](CCC(=O)O)NC(=O)[C@@H](NC(=O)[C@H](Cc1ccccc1)NC(=O)[C@H](CCC(=O)O)NC(=O)C(C)(C)NC(=O)[C@H](CCC(N)=O)NC(=O)[C@H](C)NC(=O)[C@H](CCCCNC(=O)COCCOCCNC(=O)COCCOCCNC(=O)CC[C@H](NC(=O)CCCCCCCCCCCCCCCCC(=O)O)C(=O)O)NC(=O)[C@H](CCC(=O)O)NC(=O)[C@H](CC(=O)O)NC(=O)[C@H](CC(C)C)NC(=O)[C@](C)(CC(C)C)NC(=O)[C@@H](NC(=O)[C@H](CO)NC(=O)[C@H](Cc1ccc(O)cc1)NC(=O)[C@H](CC(=O)O)NC(=O)[C@H](CO)NC(=O)[C@@H](NC(=O)[C@](C)(Cc1ccccc1F)NC(=O)[C@@H](NC(=O)CNC(=O)[C@H](CCC(=O)O)NC(=O)C(C)(C)NC(=O)[C@@H](N)Cc1ccc(O)cc1)[C@@H](C)O)[C@@H](C)O)[C@@H](C)CC)[C@@H](C)CC)C(=O)N[C@@H](CCC(=O)O)C(=O)NCC(=O)NCC(=O)N1CCC[C@H]1C(=O)N[C@@H](CO)C(=O)N[C@@H](CO)C(=O)NCC(=O)N[C@@H](C)C(=O)N1CCC[C@H]1C(=O)N1CCC[C@H]1C(=O)N1CCC[C@H]1C(=O)N[C@@H](CO)C(N)=O [Example 221] (H-Y[Aib]EGT[αMePhe(2-F)]TSDYSI[αMeL]LDEK([AEEA-AEEA-γGlu-C18 diacid])AQ[Aib]EFI[dE]YLIEGGPSSGAPPPS-NH2) | 154 nM | 0.0414 nM | 0.057 nM | 0.0445 nM | 1.77 nM
CC[C@H](C)[C@H](NC(=O)[C@H](CC(C)C)NC(=O)[C@](C)(Cc1ccc(O)cc1)NC(=O)[C@@H](CCC(=O)O)NC(=O)[C@@H](NC(=O)[C@H](Cc1ccccc1)NC(=O)[C@H](CCC(=O)O)NC(=O)C(C)(C)NC(=O)[C@H](CCC(N)=O)NC(=O)[C@H](C)NC(=O)[C@H](CCCCNC(=O)COCCOCCNC(=O)COCCOCCNC(=O)CC[C@H](NC(=O)CCCCCCCCCCCCCCCCCCC(=O)O)C(=O)O)NC(=O)[C@H](CCC(=O)O)NC(=O)[C@H](CC(=O)O)NC(=O)[C@H](CC(C)C)NC(=O)[C@](C)(CC(C)C)NC(=O)[C@@H](NC(=O)[C@H](CO)NC(=O)[C@H](Cc1ccc(O)cc1)NC(=O)[C@H](CC(=O)O)NC(=O)[C@H](CO)NC(=O)[C@@H](NC(=O)[C@](C)(Cc1ccccc1F)NC(=O)[C@@H](NC(=O)CNC(=O)[C@H](CCC(=O)O)NC(=O)C(C)(C)NC(=O)[C@@H](N)Cc1ccc(O)cc1)[C@@H](C)O)[C@@H](C)O)[C@@H](C)CC)[C@@H](C)CC)C(=O)N[C@@H](CCC(=O)O)C(=O)NCC(=O)NCC(=O)N1CCC[C@H]1C(=O)N[C@@H](CO)C(=O)N[C@@H](CO)C(=O)NCC(=O)N[C@@H](C)C(=O)N1CCC[C@H]1C(=O)N1CCC[C@H]1C(=O)N1CCC[C@H]1C(=O)N[C@@H](CO)C(N)=O [Example 222] (H-Y[Aib]EGT[αMePhe(2-F)]TSDYSI[αMeL]LDEK([AEEA-AEEA-γGlu-C20 diacid])AQ[Aib]EFI[dE][αMeY]LIEGGPSSGAPPPS-NH2; N-terminus assumed) | 71.3 nM | 0.0495 nM | 0.0248 nM | 0.0306 nM | 3.59 nM
CC[C@H](C)[C@H](NC(=O)[C@H](CC(C)C)NC(=O)[C@](C)(Cc1ccc(O)cc1)NC(=O)[C@H](CCC(=O)O)NC(=O)[C@@H](NC(=O)[C@H](Cc1ccccc1)NC(=O)[C@H](CCC(=O)O)NC(=O)C(C)(C)NC(=O)[C@H](CCC(N)=O)NC(=O)[C@H](C)NC(=O)[C@H](CCCCNC(=O)COCCOCCNC(=O)COCCOCCNC(=O)CC[C@H](NC(=O)CCCCCCCCCCCCCCCCCCC(=O)O)C(=O)O)NC(=O)[C@H](CCC(=O)O)NC(=O)[C@H](CC(=O)O)NC(=O)[C@H](CC(C)C)NC(=O)[C@](C)(CC(C)C)NC(=O)[C@@H](NC(=O)[C@H](CO)NC(=O)[C@H](Cc1ccc(O)cc1)NC(=O)[C@H](CC(=O)O)NC(=O)[C@H](CO)NC(=O)[C@@H](NC(=O)[C@](C)(Cc1ccccc1F)NC(=O)[C@@H](NC(=O)CNC(=O)[C@H](CCC(=O)O)NC(=O)C(C)(C)NC(=O)[C@@H](N)Cc1ccc(O)cc1)[C@@H](C)O)[C@@H](C)O)[C@@H](C)CC)[C@@H](C)CC)C(=O)N[C@@H](CCC(=O)O)C(=O)NCC(=O)NCC(=O)N1CCC[C@H]1C(=O)N[C@@H](CO)C(=O)N[C@@H](CO)C(=O)NCC(=O)N[C@@H](C)C(=O)N1CCC[C@H]1C(=O)N1CCC[C@H]1C(=O)N1CCC[C@H]1C(=O)N[C@@H](CO)C(N)=O [Example 223] (H-Y[Aib]EGT[αMePhe(2-F)]TSDYSI[αMeL]LDEK([AEEA-AEEA-γGlu-C20 diacid])AQ[Aib]EFIE[αMeY]LIEGGPSSGAPPPS-NH2) | 46.5 nM | 0.0921 nM | 0.0363 nM | 0.067 nM | 5.62 nM
CC[C@H](C)[C@H](NC(=O)[C@H](CC(C)C)NC(=O)[C@H](Cc1ccc(O)cc1)NC(=O)[C@@H](CCC(=O)O)NC(=O)[C@@H](NC(=O)[C@H](Cc1ccccc1)NC(=O)[C@H](CCC(=O)O)NC(=O)C(C)(C)NC(=O)[C@H](CCC(N)=O)NC(=O)[C@H](C)NC(=O)[C@H](CCCCNC(=O)COCCOCCNC(=O)COCCOCCNC(=O)CC[C@H](NC(=O)CCCCCCCCCCCCCCCCCCC(=O)O)C(=O)O)NC(=O)[C@H](CCC(=O)O)NC(=O)[C@H](CC(=O)O)NC(=O)[C@H](CC(C)C)NC(=O)C(C)(C)NC(=O)[C@@H](NC(=O)[C@H](CO)NC(=O)[C@H](Cc1ccc(O)cc1)NC(=O)[C@H](CC(=O)O)NC(=O)[C@H](CO)NC(=O)[C@@H](NC(=O)[C@](C)(Cc1ccccc1F)NC(=O)[C@@H](NC(=O)CNC(=O)[C@H](CCC(=O)O)NC(=O)C(C)(C)NC(=O)[C@@H](N)Cc1ccc(O)cc1)[C@@H](C)O)[C@@H](C)O)[C@@H](C)CC)[C@@H](C)CC)C(=O)N[C@@H](CCC(=O)O)C(=O)NCC(=O)NCC(=O)N1CCC[C@H]1C(=O)N[C@@H](CO)C(=O)N[C@@H](CO)C(=O)NCC(=O)N[C@@H](C)C(=O)N1CCC[C@H]1C(=O)N1CCC[C@H]1C(=O)N1CCC[C@H]1C(=O)N[C@@H](CO)C(N)=O [Example 224] (H-Y[Aib]EGT[αMePhe(2-F)]TSDYSI[Aib]LDEK([AEEA-AEEA-γGlu-C20 diacid])AQ[Aib]EFI[dE]YLIEGGPSSGAPPPS-NH2) | 627 nM | 0.0482 nM | 0.0349 nM | 0.0545 nM | 6.86 nM
